# Literature values, collected in US20190192552A1, “PHARMACEUTICAL COMPOSITIONS AND METHODS FOR TREATING KELOIDS, HY[…] AND WOUNDS, AND FOR PROVIDING IMPROVED SKIN CARE” (Cormedix Inc., priority 2017, published 2019).
# Tested on: Microbes
# Conditions: microbes killed and resulting toxins inactivated
smiles,measurement,value
"O=S1(=O)CCN(CN2CCS(=O)(=O)NC2)CN1 [taurolidine, 4,4′-methylene-bis(tetrahydro-1,2,4-thiadiazine)-1,1,1′,1′,-tetraoxide]",destruction time in vitro,approximately 30 minutes
